This is an account of results in ChEMBL document CHEMBL6109115, “Rapid discovery of pseudorabies virus inhibitors repurposed from the antimicrobial agent ciprofloxacin” (Eur J Med Chem, 2025).

The term EC50 denotes the concentration at which the effect is half-maximal. For orientation: CC50 means the concentration that lowers cell viability or growth by half. One may read the half-life as the time needed for the level to fall by half in the phase considered. A lower half-life goes with fast loss. One may read the Tmax as the time from dosing to the highest level. In general, Cmax refers to the maximum level reached in the sampled fluid or tissue. Usually AUC(0-t) stands for the area under the concentration-time curve up to a stated or last time point. As a reminder, the AUC(0-inf) is total exposure, with the tail of the curve extrapolated. High values mean high exposure, low ones low exposure. The MRT last is the average time that molecules of a dose stay in the body. The term MRT inf denotes the average time that molecules of a dose stay in the body. A word on the inhibition in vivo: it is the relative decrease from the control value, in per cent. The inhibition is the share of the control response that was lost under treatment.

The structures appear in SMILES notation. In brackets after ≈: the same amount, converted by molar mass. Activity calls are given as the source filed them.

Series [1] has as its system Suid alphaherpesvirus 1. In words: Antiviral activity against Suid alphaherpesvirus 1. The class given is functional, organism-based.
The test system of series [2] is Suid alphaherpesvirus 1. Nature of the series: Antiviral activity against Suid alphaherpesvirus 1 infected in pig PK-15 cells assessed as inhibition of replication pretreated with compound for 2 hrs followed by viral infection and measured after 48 hrs. The class given is functional, organism-based. The settings on record: Suid alphaherpesvirus 1, PK-15.
Series [3] has as its system Suid alphaherpesvirus 1. In words: Antiviral activity against Suid alphaherpesvirus 1 infected in pig PK-15 cells assessed as inhibition of viral growth. The class given is functional. The settings on record: Suid alphaherpesvirus 1, in Sus scrofa.
The subject of series [4] is Suid alphaherpesvirus 1. Nature of the series: Antiviral activity against Suid alphaherpesvirus 1 infected in pig PK-15 cells infected for 1 hr followed by compound addition and measured after 48 hrs. To be noted: Suid alphaherpesvirus 1, PK-15. The class given is functional, organism-based.
The nature of series [5]: Cytotoxicity against pig PK-15 cells. The class given is toxicity, cell-based, Sus scrofa.
Series [6] can be described thus: Cytotoxicity against pig PK-15 cells assessed as cell viability incubated for 72 hrs by CCK-8 assay. The class given is toxicity, cell-based, Sus scrofa. (In general: Tetrazolium assays rely on reduction of a dye to a coloured formazan, in cell work by metabolically active cells.)
Series [7] has as its system Suid alphaherpesvirus 1. Nature of the series: Antiviral activity against Suid alphaherpesvirus 1 infected in pig PK-15 cells assessed as inhibition of viral replication. The format is functional, organism-based. To be noted: Suid alphaherpesvirus 1, PK-15.
The test system of series [8] is Suid alphaherpesvirus 1. Nature of the series: Antiviral activity against Suid alphaherpesvirus 1 infected in pig PK-15 cells assessed as inhibition of replication at >200 nM pretreated with compound for 2 hrs followed by viral infection and measured after 48 hrs. The format is functional. To be noted: time 50 hrs.
The nature of series [9]: Half life in male Kunming mouse at 30 mg/kg, ip measured upto 8 hrs by LC-MS/MS analysis. The format is ADME, organism-based. The settings on record: in vivo.
Series [10] can be described thus: Tmax in male Kunming mouse at 30 mg/kg, ip measured up to 8 hrs by LC-MS/MS analysis. The settings on record: in vivo. The format is ADME, organism-based.
The nature of series [11]: Cmax in male Kunming mouse at 30 mg/kg, ip measured up to 8 hrs by LC-MS/MS analysis. The format is ADME, organism-based. The settings on record: in vivo.
A short description of series [12]: AUC (0 to t) in male Kunming mouse at 30 mg/kg, ip measured up to 8 hrs by LC-MS/MS analysis. To be noted: in vivo. The class given is ADME, organism-based.
The nature of series [13]: AUC (0 to infinity) in male Kunming mouse at 30 mg/kg, ip measured up to 8 hrs by LC-MS/MS analysis. The settings on record: in vivo. The class given is ADME, organism-based.
Series [14] is described as follows: MRT (0 to t) in male Kunming mouse at 30 mg/kg, ip measured up to 8 hrs by LC-MS/MS analysis. The class given is ADME, organism-based. To be noted: in vivo.
Series [15] can be described thus: MRT (0 to infinity) in male Kunming mouse at 30 mg/kg, ip measured up to 8 hrs by LC-MS/MS analysis. The class given is ADME, organism-based. The settings on record: in vivo.
The test system of series [16] is Suid alphaherpesvirus 1. In words: Antiviral activity against Suid alphaherpesvirus 1 infected in Kunming mouse assessed as survival at 30 mg/kg, ip measured at 7.3 days. To be noted: time 7.3 day. The format is functional, organism-based.
Series [17] deals with Suid alphaherpesvirus 1. Nature of the series: Antiviral activity against Suid alphaherpesvirus 1 infected in Kunming mouse assessed as reduction in viral copy numbers in blood at 30 mg/kg, ip measured on day 6 by qPCR analysis. The class given is functional, organism-based. To be noted: time 6.0 day.
Series [18] has as its system Suid alphaherpesvirus 1. Nature of the series: Antiviral activity against Suid alphaherpesvirus 1 infected in Kunming mouse assessed as reduction in viral copy numbers in brain at 30 mg/kg, ip measured on day 6 by qPCR analysis. The format is functional. The settings on record: time 6 day. A general note: Quantitative PCR measures a nucleic acid by following its amplification.

Series [19] concerns Suid alphaherpesvirus 1. In words: Antiviral activity against Suid alphaherpesvirus 1 infected in Kunming mouse assessed as inhibition of viral copy numbers in brain at 30 mg/kg, ip measured on day 6 by qPCR analysis. The class given is functional. To be noted: Suid alphaherpesvirus 1, 144 h, time 6 day.
Series [20] deals with Suid alphaherpesvirus 1. Nature of the series: Antiviral activity against Suid alphaherpesvirus 1 infected in pig PK-15 cells assessed as inhibition of replication at 1 uM pretreated with compound for 2 hrs followed by viral infection and measured after 48 hrs (reference value: 99.6%). The class given is functional. The settings on record: Suid alphaherpesvirus 1, PK-15, in Sus scrofa, time 50 hrs.

Series [21] relates to Suid alphaherpesvirus 1. In words: Antiviral activity against Suid alphaherpesvirus 1 infected in pig PK-15 cells assessed as inhibition of viral replication pretreated with compound for 2 hrs followed by viral infection and measured after 24 hrs by ELISA analysis. The class given is functional, organism-based. The settings on record: Suid alphaherpesvirus 1, PK-15. On the technique in general: In an ELISA, binding on a coated surface is turned into a signal by an enzyme label.

The test system of series [22] is Suid alphaherpesvirus 1. Nature of the series: Antiviral activity against Suid alphaherpesvirus 1 infected in pig PK-15 cells. The format is functional, organism-based. The settings on record: Suid alphaherpesvirus 1, PK-15.

Take `CCCCCC/C=C\CCCCCCCc1cccc(O)c1C(=O)O` [GINGKOLIC ACID]: the response with Suid alphaherpesvirus 1 [1] was half-maximal at 3400 nM (EC50).

`O=C(NCc1cc(Cl)ccc1F)c1cn(Cc2ccccc2)c2cc(N3CCNCC3)c(F)cc2c1=O`: the 50% effective concentration (EC50) with Suid alphaherpesvirus 1 [2] is 2.11 nM. For the same compound, the MIC80 with Suid alphaherpesvirus 1 [3] was 40 nM (≈ 20.9 ng/mL).

In the series on Suid alphaherpesvirus 1 [4], `Cc1cc(O)c2c(c1)C(=O)c1cc(O)cc(O)c1C2=O` [EMODIN] had an EC50 of 470 nM.

`Oc1ccc(O)cc1` [HYDROQUINONE] showed an EC50 in the series with Suid alphaherpesvirus 1 [1] of 8300 nM.

Consider `Cn1cc(C(=O)NCc2ccc(Cl)cc2)c(=O)c2cc(CN3CCOCC3)ccc21`, for which the concentration giving a half-maximal response (EC50) in the series with Suid alphaherpesvirus 1 [1] was 0.1 nM; in the series on Suid alphaherpesvirus 1 [2], 1.45 nM. The same compound returned a cytotoxic concentration (CC50) in [5] of 45200 nM. In addition, the MIC80 in the series on Suid alphaherpesvirus 1 [3] worked out at 0.32 nM (≈ 0.136 ng/mL).

With `O=C(NCc1ccc(Cl)c(Cl)c1)c1cn(C2CC2)c2cc(N3CCNCC3)c(F)cc2c1=O`, the half-maximal effective concentration (EC50) in the series on Suid alphaherpesvirus 1 [2] turned out to be 0.25 nM. Also, the MIC80 in the series with Suid alphaherpesvirus 1 [3] came to 8 nM (≈ 3.92 ng/mL).

Turning to `O=C(NCc1ccc(Cl)cc1)c1cn(C2CC2)c2cc(N3CCNCC3)c(F)cc2c1=O`, the EC50 in the series on Suid alphaherpesvirus 1 [2] came out at 2.21 nM. Moreover, the CC50 at 72 h in [6] was found to be 9300 nM. For the same compound, the MIC80 in the series with Suid alphaherpesvirus 1 [3] was 200 nM (≈ 91 ng/mL).

`O=C(NCc1cccc(Cl)c1)c1cn(C2CC2)c2cc(N3CCNCC3)c(F)cc2c1=O`: the concentration giving a half-maximal response (EC50) in the series with Suid alphaherpesvirus 1 [2] turned out to be 10.2 nM. Moreover, the MIC80 in the series with Suid alphaherpesvirus 1 [3] is 40 nM (≈ 18.2 ng/mL).

As to `CN(C)CCNC(=O)c1cn(C)c2ccc(CN3CCOCC3)cc2c1=O`, in the series on Suid alphaherpesvirus 1 [7], the 50% effective concentration (EC50) is 0.014 nM. The CC50 in series [5] turned out to be 344000 nM.

With `O=C(NCc1cc(Cl)ccc1F)c1cn(-c2ccccc2)c2cc(N3CCNCC3)c(F)cc2c1=O`, the 50% effective concentration (EC50) in the series with Suid alphaherpesvirus 1 [2] came out at 0.29 nM. Also, the MIC80 with Suid alphaherpesvirus 1 [3] was 1.6 nM (≈ 0.814 ng/mL). Further, the “inhibition (INH)” value in the series on Suid alphaherpesvirus 1 [8] is on record as “<=99.5%”. This compound had a half-life in series [9] of 3.24 h. The time of peak concentration (Tmax) in series [10] was found to be 1.5 h. In [11], this compound returned a Cmax of 0.343 µg/mL. The compound further showed an area under the curve AUC(0-t) at 8 h in series [12] of 1.02 µg·h/mL. The total exposure AUC(0-inf) in series [13] turned out to be 1.33 µg·h/mL. This compound registered a mean residence time MRT last at 8 h in series [14] of 3.15 h. In addition, in series [15], the mean residence time MRT inf was found to be 5.34 h. Besides, the outcome in the series on Suid alphaherpesvirus 1 [16] and with Suid alphaherpesvirus 1 [17] was Active. For the same compound, in the series on Suid alphaherpesvirus 1 [18], the Activity came to 280 g⁻¹. Further, in the series on Suid alphaherpesvirus 1 [19], the inhibition in vivo at 30 mg/kg is greater than 99%.

For `O=C(O)c1cn(C2CC2)c2cc(N3CCNCC3)c(F)cc2c1=O` [CIPROFLOXACIN], the inhibition at 1 µM with Suid alphaherpesvirus 1 [20] amounted to 65%.

Turning to `C[C@]12CC[C@H](O)C[C@H]1CC[C@@H]1[C@@H]2CC[C@]2(C)[C@@H](c3ccc(=O)oc3)CC[C@]12O` [BUFALIN], the EC50 in the series on Suid alphaherpesvirus 1 [21] is 33 nM.

For the compound `O=C(NCc1cc(Cl)ccc1F)c1cn(C2CC2)c2cc(N3CCNCC3)c(F)cc2c1=O`, the EC50 in the series on Suid alphaherpesvirus 1 [2] was found to be 0.21 nM. In [6], the cytotoxic concentration (CC50) at 72 h is greater than 100000 nM. The MIC80 in the series with Suid alphaherpesvirus 1 [3] was determined as 1.6 nM (≈ 0.757 ng/mL). In the series with Suid alphaherpesvirus 1 [8], the “inhibition (INH)” value is “<=99.5%”.

As to `CCn1cc(C(=O)O)c(=O)c2cc(F)c(N3CCNCC3)cc21` [NORFLOXACIN], in the series on Suid alphaherpesvirus 1 [20], the inhibition at 1 µM is 66%.

Consider `O=C(NCc1cc(Cl)ccc1Cl)c1cn(C2CC2)c2cc(N3CCNCC3)c(F)cc2c1=O`, for which the EC50 with Suid alphaherpesvirus 1 [2] is 0.71 nM. For the same compound, the MIC80 with Suid alphaherpesvirus 1 [3] is 8 nM (≈ 3.92 ng/mL).

For the compound `Oc1cc(O)cc(/C=C/c2ccc(O)c(O)c2)c1` [PICEATANNOL], in the series on Suid alphaherpesvirus 1 [22], the EC50 was 126 nM.

With `O=C(NCc1cc(Cl)ccn1)c1cn(C2CC2)c2cc(N3CCNCC3)c(F)cc2c1=O`, in the series on Suid alphaherpesvirus 1 [2], the EC50 turned out to be 0.39 nM. Besides, in the series with Suid alphaherpesvirus 1 [3], the MIC80 came to 8 nM (≈ 3.65 ng/mL).

`CCn1cc(C(=O)NCc2cccc(Cl)c2)c(=O)c2cc(F)c(N3CCNCC3)cc21`: in the series with Suid alphaherpesvirus 1 [2], the concentration giving a half-maximal response (EC50) worked out at 0.85 nM. Further, the MIC80 with Suid alphaherpesvirus 1 [3] was determined as 8 nM (≈ 3.54 ng/mL).
